Active and inactive are the calls of the source.
Tests used:
[1] = target: P2Y purinoceptor 2 (Homo sapiens) (UniProt P41231); test: Agonist activity at human P2Y2 receptor expressed in AD293 cells assessed as inositol-1-phosphate accumulation at 100 uM; type: functional, cell-based
[2] = target: T1, Ectonucleoside triphosphate diphosphohydrolase 8 (Homo sapiens) (UniProt Q5MY95); test: Inhibition of human NTPdase-8 expressed in COS7 cell membranes at 100 uM using ATP as substrate preincubated for 3 mins followed by susbtrate addition and measured after 10 mins by malachite green dye based method
T1 sequence (whole entry): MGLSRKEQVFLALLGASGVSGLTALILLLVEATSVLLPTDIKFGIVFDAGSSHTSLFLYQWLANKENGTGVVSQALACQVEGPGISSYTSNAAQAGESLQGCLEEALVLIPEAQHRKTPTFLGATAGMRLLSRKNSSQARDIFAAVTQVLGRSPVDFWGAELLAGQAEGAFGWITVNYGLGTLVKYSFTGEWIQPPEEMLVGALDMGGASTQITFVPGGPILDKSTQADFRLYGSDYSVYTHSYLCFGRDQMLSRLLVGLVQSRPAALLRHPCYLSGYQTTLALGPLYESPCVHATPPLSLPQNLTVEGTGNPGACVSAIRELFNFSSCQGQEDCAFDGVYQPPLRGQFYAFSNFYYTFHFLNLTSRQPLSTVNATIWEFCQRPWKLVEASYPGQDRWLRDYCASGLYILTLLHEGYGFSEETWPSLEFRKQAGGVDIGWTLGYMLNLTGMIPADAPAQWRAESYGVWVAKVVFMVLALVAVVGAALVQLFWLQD

[3] = target: P2Y purinoceptor 4 (Homo sapiens) (UniProt P51582); test: Agonist activity at human P2Y4 receptor expressed in AD293 cells assessed as inositol-1-phosphate accumulation at 0.1 to 100 uM; type: functional, cell-based
Sequence of P2Y purinoceptor 4 (Homo sapiens) (P51582 whole entry): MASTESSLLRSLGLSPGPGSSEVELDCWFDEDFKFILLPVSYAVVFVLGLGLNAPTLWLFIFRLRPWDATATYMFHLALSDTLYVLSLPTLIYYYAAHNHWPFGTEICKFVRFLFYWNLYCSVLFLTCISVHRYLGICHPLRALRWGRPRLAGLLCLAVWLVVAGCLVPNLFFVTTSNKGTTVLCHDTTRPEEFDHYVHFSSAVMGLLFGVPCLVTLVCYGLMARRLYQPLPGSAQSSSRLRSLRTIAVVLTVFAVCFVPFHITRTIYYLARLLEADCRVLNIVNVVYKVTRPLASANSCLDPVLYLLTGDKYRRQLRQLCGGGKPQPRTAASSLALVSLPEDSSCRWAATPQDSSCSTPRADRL

[4] = target: P2Y purinoceptor 4 (Homo sapiens) (UniProt P51582); test: Antagonist activity at human P2Y4 receptor expressed in AD293 cells assessed as inhibition of UTP-induced inositol-1-phosphate accumulation at 0.1 to 100 uM; type: functional, cell-based
[5] = target: P2Y purinoceptor 6 (Homo sapiens) (UniProt Q15077); test: Antagonist activity at human P2Y6 receptor expressed in AD293 cells assessed as inhibition of UDP-induced inositol-1-phosphate accumulation at 0.1 to 100 uM; type: functional, cell-based
Sequence of P2Y purinoceptor 6 (Homo sapiens) (Q15077 whole entry): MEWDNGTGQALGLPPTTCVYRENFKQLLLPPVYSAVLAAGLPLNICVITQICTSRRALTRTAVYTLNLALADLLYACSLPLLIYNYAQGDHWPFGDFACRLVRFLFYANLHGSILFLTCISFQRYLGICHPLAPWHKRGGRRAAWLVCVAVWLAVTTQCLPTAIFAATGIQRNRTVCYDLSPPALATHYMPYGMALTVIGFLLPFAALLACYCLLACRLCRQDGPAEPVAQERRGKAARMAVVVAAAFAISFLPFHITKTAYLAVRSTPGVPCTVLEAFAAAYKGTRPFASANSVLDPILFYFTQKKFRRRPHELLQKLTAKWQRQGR

[6] = target: P2Y purinoceptor 2 (Homo sapiens) (UniProt P41231); test: Agonist activity at human P2Y2 receptor expressed in AD293 cells assessed as induction of IP1 accumulation at 0.1 to 1 uM; type: functional, cell-based
[7] = target: T2, Ectonucleoside triphosphate diphosphohydrolase 3 (Homo sapiens) (UniProt O75355); test: Inhibition of human NTPdase-3 expressed in COS7 cell membranes at 100 uM using ATP as substrate preincubated for 3 mins followed by susbtrate addition and measured after 10 mins by malachite green dye based method
T2 sequence (whole entry): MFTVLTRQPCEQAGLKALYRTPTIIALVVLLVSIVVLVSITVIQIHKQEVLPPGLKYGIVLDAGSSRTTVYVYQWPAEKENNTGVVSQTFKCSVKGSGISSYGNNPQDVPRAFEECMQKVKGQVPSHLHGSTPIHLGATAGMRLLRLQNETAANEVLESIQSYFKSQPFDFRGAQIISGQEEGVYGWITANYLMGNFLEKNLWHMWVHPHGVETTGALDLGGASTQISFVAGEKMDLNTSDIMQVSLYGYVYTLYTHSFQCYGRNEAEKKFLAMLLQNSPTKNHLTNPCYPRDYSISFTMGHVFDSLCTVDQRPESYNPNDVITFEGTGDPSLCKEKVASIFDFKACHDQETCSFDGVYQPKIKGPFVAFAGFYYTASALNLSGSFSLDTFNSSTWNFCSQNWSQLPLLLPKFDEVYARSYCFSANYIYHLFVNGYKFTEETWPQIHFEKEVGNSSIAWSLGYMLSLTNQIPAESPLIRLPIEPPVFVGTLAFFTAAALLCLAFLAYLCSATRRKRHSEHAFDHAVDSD

[8] = target: T3, Ectonucleoside triphosphate diphosphohydrolase 2 (Homo sapiens) (UniProt Q9Y5L3); test: Inhibition of human NTPdase-2 expressed in COS7 cell membranes at 100 uM using ATP as substrate preincubated for 3 mins followed by susbtrate addition and measured after 10 mins by malachite green dye based method
T3 sequence (whole entry): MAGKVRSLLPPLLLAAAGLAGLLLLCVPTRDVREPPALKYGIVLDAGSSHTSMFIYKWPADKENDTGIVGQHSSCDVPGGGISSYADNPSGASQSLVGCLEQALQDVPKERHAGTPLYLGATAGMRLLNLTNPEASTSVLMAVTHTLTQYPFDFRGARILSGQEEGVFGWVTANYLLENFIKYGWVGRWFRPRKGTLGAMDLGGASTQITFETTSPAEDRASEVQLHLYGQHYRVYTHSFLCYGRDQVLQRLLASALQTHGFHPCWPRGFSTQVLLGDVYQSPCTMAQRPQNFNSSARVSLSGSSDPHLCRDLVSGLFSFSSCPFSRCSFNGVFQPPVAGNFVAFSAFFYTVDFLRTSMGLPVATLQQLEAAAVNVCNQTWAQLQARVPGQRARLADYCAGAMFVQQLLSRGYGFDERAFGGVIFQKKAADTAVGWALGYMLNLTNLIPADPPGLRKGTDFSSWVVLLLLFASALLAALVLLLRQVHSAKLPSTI

[9] = target: T4, Ectonucleoside triphosphate diphosphohydrolase 1 (Homo sapiens) (UniProt P49961); test: Inhibition of human NTPdase-1 expressed in COS7 cell membranes at 100 uM using ATP as substrate preincubated for 3 mins followed by susbtrate addition and measured after 10 mins by malachite green dye based method
T4 sequence (whole entry): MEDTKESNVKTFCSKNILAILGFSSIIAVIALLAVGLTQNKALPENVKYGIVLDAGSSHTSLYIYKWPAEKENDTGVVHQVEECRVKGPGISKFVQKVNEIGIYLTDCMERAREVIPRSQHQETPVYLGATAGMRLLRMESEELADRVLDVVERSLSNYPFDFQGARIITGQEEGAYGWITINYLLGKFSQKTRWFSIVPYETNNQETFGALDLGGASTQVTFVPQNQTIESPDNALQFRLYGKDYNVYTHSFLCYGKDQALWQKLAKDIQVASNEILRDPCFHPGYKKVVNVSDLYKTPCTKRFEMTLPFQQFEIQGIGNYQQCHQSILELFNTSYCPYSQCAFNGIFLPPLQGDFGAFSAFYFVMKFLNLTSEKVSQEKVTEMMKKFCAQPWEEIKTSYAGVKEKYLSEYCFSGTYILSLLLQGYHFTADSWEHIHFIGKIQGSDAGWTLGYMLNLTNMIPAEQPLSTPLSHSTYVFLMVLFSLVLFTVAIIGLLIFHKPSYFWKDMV

[10] = target: P2Y purinoceptor 6 (Homo sapiens) (UniProt Q15077); test: Agonist activity at human P2Y6 receptor expressed in AD293 cells assessed as inositol-1-phosphate accumulation at 100 uM; type: functional, cell-based

Sequence of P2Y purinoceptor 2 (Homo sapiens) (P41231 whole entry): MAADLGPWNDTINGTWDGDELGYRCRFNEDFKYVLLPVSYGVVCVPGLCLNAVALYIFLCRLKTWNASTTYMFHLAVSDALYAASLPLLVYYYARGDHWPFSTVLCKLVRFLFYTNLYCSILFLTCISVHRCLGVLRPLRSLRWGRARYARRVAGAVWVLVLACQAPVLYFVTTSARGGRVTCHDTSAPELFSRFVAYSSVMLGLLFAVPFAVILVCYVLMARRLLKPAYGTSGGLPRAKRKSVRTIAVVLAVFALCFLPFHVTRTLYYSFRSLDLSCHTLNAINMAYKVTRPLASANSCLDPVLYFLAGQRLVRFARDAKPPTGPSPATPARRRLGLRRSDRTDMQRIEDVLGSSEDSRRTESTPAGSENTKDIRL

Activity [6] | SMILES | Activity [1] | Inhibition call (active/not active) [2] | Activity [3] | inhibition [4] | inhibition [5] | inhibition [7] | inhibition [8] | inhibition call at 100 uM (active/not active) [9] | Activity [10]
inactive | O=c1ccn(COCCOP(=O)(O)C(Cl)(Cl)P(=O)(O)O)c(=O)[nH]1 | inactive | Active | inactive | inactive | inactive | Active | Active | Active | –
– | O=c1ccn(COCCOP(=O)(O)O)c(=O)[nH]1 | inactive | inactive | inactive | inactive | inactive | inactive | inactive | inactive | –
– | O=c1ccn(COCCOP(=S)(S)OP(=O)(O)C(Cl)(Cl)P(=O)(O)O)c(=O)[nH]1 (stereo not drawn) | inactive | Active | inactive | inactive | inactive | Active | Active | Active | Active
– | O=c1ccn(COCCOP(=S)(S)OP(=O)(O)CP(=O)(O)O)c(=O)[nH]1 (stereo not drawn) | inactive | Active | inactive | inactive | inactive | Active | Active | Active | Active
inactive | O=c1ccn(COCCOP(=O)(O)CP(=O)(O)O)c(=O)[nH]1 | – | Active | inactive | inactive | inactive | Active | Active | Active | Active

SMILES | Activity [6] | Activity [1] | Inhibition call (active/not active) [2] | Activity [3] | inhibition [4] | inhibition [5] | inhibition [7] | inhibition [8] | inhibition call at 100 uM (active/not active) [9] | Activity [10]
O=c1ccn(COCCO[PH](=O)O)c(=O)[nH]1 | inactive | inactive | inactive | inactive | inactive | inactive | inactive | inactive | inactive | –
